Measurements as given in ChEMBL document CHEMBL1201862, “PubChem BioAssay data set” (2004).
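Results reflect a 48-hour exposure of cells in 96-well plates to compound at five concentrations. The concentration for 50% growth inhibition is given as GI50.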 Activity calls are given as the source filed them. Rule as the data show it: active = GI50 up to about 1.1 µM and inactive = higher.

Legend:
Assay in all cases: inhibition of tumour cell growth, NCI panel, 48 h
COLO 205 = tested on: COLO 205
NCI-H522 = tested on: NCI-H522
HCT-15 = tested on: HCT-15
HCC 2998 = tested on: HCC 2998
M19-MEL = tested on: M19-MEL
M14 = tested on: M14
SK-MEL-2 = tested on: SK-MEL-2
SK-MEL-28 = tested on: SK-MEL-28
NCI-H23 = tested on: NCI-H23
KM12 = tested on: KM12
SK-OV-3 = tested on: SK-OV-3
TK-10 = tested on: TK-10
DMS-273 = tested on: DMS-273
SR = tested on: SR
RPMI-8226 = tested on: RPMI-8226
K562 = tested on: K562
UO-31 = tested on: UO-31
RXF 393 = tested on: RXF 393
CAKI-1 = tested on: CAKI-1
OVCAR-3 = tested on: OVCAR-3

For `CNC(=O)CN1CC(=O)N(C)C(=O)C1`, the GI50 (COLO 205) was > 100 µM (inactive), the GI50 (NCI-H522) was > 100 µM (inactive) and the GI50 (HCT-15) was > 100 µM. For the same compound, the GI50 (HCC 2998) was > 100 µM (inactive), the GI50 (M19-MEL) was > 100 µM (inactive) and the GI50 (M14) was > 100 µM (inactive). The GI50 (SK-MEL-2) was > 100 µM (inactive), the GI50 (SK-MEL-28) was > 100 µM (inactive) and the GI50 (NCI-H23) was > 100 µM (inactive). For the same compound, the GI50 (KM12) was > 100 µM (inactive), the GI50 (SK-OV-3) was > 100 µM (inactive) and the GI50 (TK-10) was > 100 µM (inactive). The GI50 (DMS-273) was > 100 µM (inactive), the GI50 (SR) was > 100 µM (inactive) and the GI50 (RPMI-8226) was > 100 µM (inactive). For the same compound, the GI50 (K562) was > 100 µM (inactive), the GI50 (UO-31) was > 100 µM (inactive) and the GI50 (RXF 393) was > 100 µM (inactive). The GI50 (CAKI-1) was > 100 µM (inactive) and the GI50 (OVCAR-3) was > 100 µM (inactive).
In the case of `CC1(C)Cc2c(C#N)c(N)c3c(c2CO1)C(=O)OC3=O`, the GI50 (COLO 205) is reported as > 100 µM (inactive), the GI50 (NCI-H522) is reported as > 100 µM (inactive) and the GI50 (HCT-15) is reported as > 100 µM. The GI50 (HCC 2998) was > 100 µM (inactive), the GI50 (M19-MEL) was > 100 µM (inactive) and the GI50 (M14) was > 100 µM (inactive). For the same compound, the GI50 (SK-MEL-2) was > 100 µM (inactive), the GI50 (SK-MEL-28) was > 100 µM (inactive) and the GI50 (NCI-H23) was > 100 µM (inactive). For the same compound, the GI50 (KM12) was > 100 µM (inactive), the GI50 (SK-OV-3) was > 100 µM (inactive) and the GI50 (TK-10) was > 100 µM (inactive). The GI50 (DMS-273) was > 100 µM (inactive), the GI50 (SR) was > 100 µM (inactive) and the GI50 (RPMI-8226) was > 100 µM (inactive). The GI50 (K562) was > 100 µM (inactive), the GI50 (UO-31) was > 100 µM (inactive) and the GI50 (RXF 393) was > 100 µM (inactive). For the same compound, the GI50 (CAKI-1) was > 100 µM (inactive) and the GI50 (OVCAR-3) was > 100 µM (inactive).
